Measured values published in US20240325379A1, “LOW-DOSE NALTREXOL AND USES THEREOF” (AETHER THERAPEUTICS INC., priority 2021, published 2024).
“Also recorded” adds a separate entry of the source. Where two headings read alike, the source gives them in different places.

Legend:
[1] = Oral bioavailability in rodents; settings: in vivo
Method: In one embodiment, the dose of 6BN is from 0.001 to 0.25 mg. In another embodiment, the dose of 6BN is from 0.25 to 0.50 mg. In a further embodiment, the dose of 6BN is from 0.50 to 0.75 mg. In a still further embodiment, the dose of 6BN is from 0.75 to 1.0 mg. In a still another embodiment, the dose of 6BN is from 1.0 to 1.25 mg. In another embodiment, the dose of 6BN is from 1.25 to 1.5 mg. In a further embodiment, the dose of 6BN is from 1.5 to 1.75 mg. In a still further embodiment, the dose of 6BN is from 1.75 to 2.0 mg. In a still further embodiment, the dose of 6BN is from 2.0 to 3.0 mg. These projected dose ranges can be modified once clinical results with LD-6BN are available (for example oral bioavailability, estimated here to be ˜30% as observed in rodents.

MOR-μ* = test: Prevention/reversal of opioid dependence in animal models (FIG. 1, methadone-treated animals); type: in vivo, guinea pig; settings: low dose, no interference with opioid analgesia, no withdrawal
From the text: FIG. 1 provides data showing prevention of withdrawal behavior in methadone-treated animals.

[2] = humans; cited from earlier work
[3] = Oral bioavailability in humans; settings: human, in vivo
From the text: (§1) Additional preferred formulations include transdermal patch application and intranasal application (with partial direct access to the brain, bypassing the blood-brain-barrier). When combined with opioid analgesics in a co-formulation, LD-6BN can be delivered in the same formulation type for any of the opioid analgesics currently used clinically, including sustained release oral preparations. No dosage adjustments are needed.

[4] = system: morphine induced slowing of bowel movements; settings: cited from earlier work
[5] = Blood and brain levels of 6BN after s.c. doses (FIG. 3); type: in vivo, guinea pigs
Method: Therefore, when serving as an addiction modulator, LD-6BN interacts effectively with both peripheral and central opioid receptors. Its effect on reversing opioid induced hyperalgesia might at least in part occur by acting on MOR in peripheral nociceptor neurons (15), but reversal of opioid dependence is likely driven by a central effect. The level of MOR bound 6BN after an s.c. dose of 0.02 mg/kg is estimated to occupy ˜10% of MOR sites, assuring a gradual reversal of MOR-μ* to MOR-μ and MOR-μ^x, insufficient to interfere with opioid analgesia, or cause withdrawal in dependent subjects.
(§2) High potency in facilitating gradual conversion of the dependent state (elevated MOR-μ*) back to the resting and/or reserve MOR states. Following LD-6B dosing, only a low fractional receptor occupancy is sufficient to reverse the dependent state in a gradual dynamic fashion, further accounting for high potency as an addiction modulator. • 5. When designed to act as an antagonist (doses above the LD-6BN range), potency is expected to increase over time when administered before an opioid agonist, presumably via high MOR-μ* occupancy and thereby more rapid reversal of MOR-μ* back to its resting or reserve states. […] Morphinan analogues of 6BN tend to bind to all opioid receptors with varying potency and efficacy (patents (47)). […] Potency of potential addiction modulators should therefore be tested for binding and efficacy at MOR, DOR (delta), and KOR, to detect differences between them and anticipate potential variation in clinical outcomes.

MOR [6] = biological target: T1, MOR (Homo sapiens, UniProt P35372); settings: 6β-naltrexol compared with naltrexone; cited from earlier work
Water solubility = type: physicochemical
From the text: as §1

peripheral MOR = settings: methadone maintenance subjects, cited from earlier work
[7] = biological target: kappa opioid receptors (KOR) (Homo sapiens, UniProt P41145); test: Inverse agonist activity at KOR pretreated in vitro with KOR agonists; type: biochemical
From the text: as §2

MOR [8] = test: Antagonist potency when administered before morphine in mice; type: in vivo; settings: for change of antagonist potency when given before morphine compared to the same time: ~2 h before morphine
[9] = system: peripheral sensory neurons; settings: after washing out the drugs, 6BN tested at 10 μM; cited from earlier work
MOR [10] = biological target: T1, MOR; test: MOR affinity (in vitro binding)
MOR [11] = biological target: T1, MOR; settings: in vivo
From the text: (§3) The invention embodies usage of any of these compounds or derivatives or metabolites thereof.

MOR [12] = biological target: T1, MOR; test: Neutral antagonism at MOR
From the text: as §3

MOR [13] = settings: opioid detoxification/weaning with descending doses of buprenorphine; cited from earlier work

T1 sequence (P35372 whole entry): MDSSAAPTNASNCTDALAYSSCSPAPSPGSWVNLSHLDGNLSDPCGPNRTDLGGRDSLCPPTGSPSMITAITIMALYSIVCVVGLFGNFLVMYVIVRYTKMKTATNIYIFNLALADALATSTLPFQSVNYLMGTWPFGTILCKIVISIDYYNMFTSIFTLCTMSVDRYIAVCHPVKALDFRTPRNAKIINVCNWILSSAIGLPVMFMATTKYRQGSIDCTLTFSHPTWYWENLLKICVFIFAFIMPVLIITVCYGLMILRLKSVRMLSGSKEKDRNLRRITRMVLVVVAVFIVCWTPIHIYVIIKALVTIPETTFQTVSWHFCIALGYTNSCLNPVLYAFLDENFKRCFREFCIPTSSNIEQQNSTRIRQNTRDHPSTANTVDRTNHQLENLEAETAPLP
Chain of kappa opioid receptors (KOR) (P41145 whole entry): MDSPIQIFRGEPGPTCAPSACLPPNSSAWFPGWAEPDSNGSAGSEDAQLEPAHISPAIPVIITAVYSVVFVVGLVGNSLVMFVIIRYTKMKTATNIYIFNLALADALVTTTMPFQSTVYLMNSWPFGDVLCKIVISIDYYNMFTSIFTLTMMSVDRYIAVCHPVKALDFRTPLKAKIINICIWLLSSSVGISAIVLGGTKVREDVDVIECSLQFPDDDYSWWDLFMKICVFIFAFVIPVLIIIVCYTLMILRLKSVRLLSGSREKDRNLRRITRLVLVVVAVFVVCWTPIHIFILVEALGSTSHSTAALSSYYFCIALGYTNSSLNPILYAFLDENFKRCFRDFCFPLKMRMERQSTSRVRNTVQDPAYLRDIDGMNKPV

## Oc1ccc2c3c1O[C@H]1[C@H](O)CC[C@@]4(O)[C@@H](C2)N(CC2CC2)CC[C@]314 [6BN, 6β-naltrexol]
[1]
  bioavailability: ~30%
MOR-μ*; listed as 6β-Naltrexol
  reversal/prevention of the opioid dependent state: extreme potency
MOR-μ*; listed as 6β-naltrexol
  reversal/prevention of the opioid dependent state: reverses the dependent state with high potency
[2]
  half-life in blood: ~12 h
[3]
  bioavailability: ~30%
[4]; 20 mg, highest dose tested, administered 30 min before morphine
  suppression of analgesia: did not suppress analgesia
[4]; i.v., against 10 mg morphine, opioid naïve subjects
  ID50 against morphine induced slowing of bowel movements: ~3 mg
[5]; Cavia porcellus, sc, after an s.c. dose of 0.02 mg/kg, estimated, read-out: occupancy of MOR sites by bound 6BN
  receptor occupancy at 0.02 mg/kg: ~10%
[5]; guinea pig, blood, sc, 1 mg/kg s.c., guinea pigs, read-out: initial blood t1/2 (converted)
  half-life: ~1 h
[5]; guinea pig, brain, sc, 24 h after a 1 mg/kg s.c. dose, guinea pigs, read-out: brain level
  concentration at 24 h: 0.5 ng/g
[5]; guinea pig, in vivo
  blood-brain-barrier penetration: slowly
MOR [6]
  affinity for MOR: nearly equally robust affinities
Water solubility
  water solubility: highly water soluble
Peripheral MOR; 0.5-1.0 mg i.v.
  central withdrawal symptoms: no central withdrawal symptoms
Peripheral MOR; i.v., peripheral effects and bowel movements experienced
  tolerated i.v. dose: 0.5 to 1.0 mg
[7]
  activity at KOR pretreated with KOR agonists: detectable inverse agonist activity
MOR [8]; high doses
  pre-injection time of maximal delayed antagonist action: ~2 h
MOR [8]
  change of antagonist potency when given before morphine compared to the same time: becomes more potent as an antagonist
[9]
  effect on MOR-μ* state: reverses MOR-μ* back to the inactive state

## CC(=O)N[C@@H]1CC[C@@]2(O)[C@H]3Cc4ccc(O)c5c4[C@@]2(CCN3CC2CC2)[C@@H]1O5 [6β-naltrexamide]
MOR [10]
  affinity to MOR in vitro: high affinity
MOR [11]
  peripheral selectivity: peripheral selectivity
MOR [11]; listed as 6β-Natrexamide
  peripheral selectivity: strong peripherally selective activity
MOR [12]
  potency as a neutral antagonist: low potency as a neutral antagonist
  type of antagonism: neutral antagonism
MOR [8]
  change of antagonist potency when given before morphine compared to the same time: gains potency; also recorded: increasing potency as a neutral antagonist

## O=C1CC[C@@]2(O)[C@H]3Cc4ccc(O)c5c4[C@@]2(CCN3CC2CC2)[C@H]1O5 [naltrexone, reference compound]
MOR [13]
  initial total oral dose above which withdrawal symptoms occur: ≤ 0.25 mg
[9]
  effect on MOR-μ* state: lock MOR into the active MOR-μ* state while blocking MOR-μ* signaling
